Assay results taken from US8658591B2, “Multi-LEU peptides and analogues thereof as selective PACE4 inhibitors and effective antiproliferative agents” (priority 2008, dated 2014).

Legend:
PC4 = target: T1, PC4 (Homo sapiens, UniProt Q6UW60); test: Enzyme inhibition assay, fluorogenic substrate, PC4; type: biochemical
T1 sequence (Q6UW60 114-755): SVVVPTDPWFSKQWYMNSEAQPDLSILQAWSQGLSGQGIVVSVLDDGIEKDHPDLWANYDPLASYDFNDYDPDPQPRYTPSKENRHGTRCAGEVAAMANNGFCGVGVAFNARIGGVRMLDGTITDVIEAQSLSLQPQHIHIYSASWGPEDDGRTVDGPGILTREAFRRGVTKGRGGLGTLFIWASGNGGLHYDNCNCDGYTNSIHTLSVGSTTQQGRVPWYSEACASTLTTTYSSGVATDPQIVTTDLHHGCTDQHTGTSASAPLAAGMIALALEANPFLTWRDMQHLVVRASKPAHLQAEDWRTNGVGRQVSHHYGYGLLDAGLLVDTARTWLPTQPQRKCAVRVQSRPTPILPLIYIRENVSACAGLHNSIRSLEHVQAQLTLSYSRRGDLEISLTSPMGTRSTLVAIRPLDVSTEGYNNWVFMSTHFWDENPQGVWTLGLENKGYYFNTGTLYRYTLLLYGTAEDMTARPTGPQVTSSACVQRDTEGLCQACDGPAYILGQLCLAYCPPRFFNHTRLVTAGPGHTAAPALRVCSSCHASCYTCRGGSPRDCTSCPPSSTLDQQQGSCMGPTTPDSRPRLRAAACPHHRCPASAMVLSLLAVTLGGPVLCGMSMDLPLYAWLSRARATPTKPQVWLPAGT
Procedure: (§1) Enzyme inhibition assays for furin (FIG. 5D) were performed in 100 mM Hepes pH 7.5, 1 mM CaCl2, 1 mM β-mercaptoethanol, 0.5 μg/μL BSA. Assays for PC2 (FIG. 5E) were performed in 20 mM Bis-Tris pH 5,7, 1 mM CaCl2, 0.1% Brij-30. Assays for PC1/3, PC4, PACE4, PC5/6 and PC7 (FIGS. 5F, G, A, B and C respectively) were performed in 20 mM Bis-Tis pH 6.5, 1 mM CaCl2. All assays were performed with the substrate pyroGlu-Arg-[…]-Lys-Arg-methyl-coumaryl-7-amide (SEQ ID NO: 33) (PyrRTKR-MCA (SEQ ID NO: 34)) (Bachem, CA) at 100 μM for furin, PC1/3, PC4, PACE4 and PC5/6, 200 μM for PC2 and 250 μM for PC7. Assays were carried out at 37° C. for 30-60 min and real-time fluorescence was measured with an excitation wavelength of 370 nm and an emission wavelength of 460 nm using a Gemini XS™ 96-well spectrofluorometer and SoftMaxPro4™ software (Molecular Devices, CA). Inhibitory peptides were added to the enzymes at decreasing concentrations from 100 μM to 50 nM and incubated 5 minutes prior to the addition of substrate.

PACE4 = target: T2, PACE4 (Homo sapiens, UniProt P29122); test: Enzyme inhibition assay, fluorogenic substrate, PACE4; type: biochemical
T2 sequence (P29122 150-969): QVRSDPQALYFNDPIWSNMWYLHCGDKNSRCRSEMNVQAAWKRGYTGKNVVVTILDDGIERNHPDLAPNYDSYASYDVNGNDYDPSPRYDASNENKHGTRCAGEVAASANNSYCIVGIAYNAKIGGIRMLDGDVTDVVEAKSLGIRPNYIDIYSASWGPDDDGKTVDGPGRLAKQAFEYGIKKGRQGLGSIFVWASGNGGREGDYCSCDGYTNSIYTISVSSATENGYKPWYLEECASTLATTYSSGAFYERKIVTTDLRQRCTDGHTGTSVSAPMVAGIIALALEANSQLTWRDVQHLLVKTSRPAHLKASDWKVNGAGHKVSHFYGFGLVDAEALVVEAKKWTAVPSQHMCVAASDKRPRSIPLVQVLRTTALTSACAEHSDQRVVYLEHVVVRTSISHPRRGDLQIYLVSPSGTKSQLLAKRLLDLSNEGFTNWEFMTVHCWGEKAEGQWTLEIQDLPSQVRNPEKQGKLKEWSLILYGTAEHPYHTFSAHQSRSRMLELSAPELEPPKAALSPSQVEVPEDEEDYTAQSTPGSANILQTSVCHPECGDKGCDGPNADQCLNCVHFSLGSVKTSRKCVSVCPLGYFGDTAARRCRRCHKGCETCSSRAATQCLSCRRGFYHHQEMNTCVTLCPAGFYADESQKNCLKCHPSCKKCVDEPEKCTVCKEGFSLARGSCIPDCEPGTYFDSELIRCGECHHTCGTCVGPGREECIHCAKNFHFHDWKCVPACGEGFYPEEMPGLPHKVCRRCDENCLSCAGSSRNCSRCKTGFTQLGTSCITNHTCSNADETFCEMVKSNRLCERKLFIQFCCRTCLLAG
Excerpt: Those skilled in the art can easily determine PACE4 activity using routine experimentation. For example, the activity assay of PACE4 can be carried out in 96 well plates, and includes the use of a fluorogenic substrate, namely PyrRTKR-AMC (SEQ ID NO: 30) (AMC is amino-methyl-coumarin). The substrate and the purified enzyme are placed in the wells, and depending on the units of enzyme present, the AMC moiety will be cleaved at a certain rate, such a pmoles/sec. The resultant free AMC is now fluorescent and can be detected with a spectrofluorometer. The addition of inhibitors to the assay will yield progress curves that have lesser slopes. Based on these changes the inhibitory constants (Ki) is calculated (Fugere et al., 2002, J. Biol. Chem., 277:7648-56).
as §1

inhibition potency on PC4, in words (PC4): poor micromolar inhibitor | inhibition potency on PACE4, in words (PACE4): poor micromolar inhibitor
Substance: RVKR [RVKR—NH2, RVKR-NH2]
